Source: ChEMBL document CHEMBL1201862, “PubChem BioAssay data set” (2004)
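Following 48 hours of exposure in 96-well plates, responses at five concentrations were used to interpolate endpoints linearly. Here, GI50 denotes the concentration required for 50% inhibition of growth.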 Activity calls are given as the source filed them. No stated cut-off is given here; in the data, active = GI50 up to about 1.1 µM and inactive = higher. Where a SMILES comes first, the peptide text is derived from it. [ ]: non-standard residue; d: D form. Hiv = CC(C)[C@H](O)C(=O)O

Key:
Test in all cases: inhibition of tumour cell growth, NCI panel, 48 h
NCI-H522 = test system: NCI-H522
MCF7 = test system: MCF7
NCI-H460 = test system: NCI-H460
HCT-15 = test system: HCT-15
SK-MEL-2 = test system: SK-MEL-2
Malme-3M = test system: Malme-3M
SK-OV-3 = test system: SK-OV-3
M14 = test system: M14
DU-145 = test system: DU-145
TK-10 = test system: TK-10
NCI-H23 = test system: NCI-H23
SW-620 = test system: SW-620
786-0 = test system: 786-0
NCI/ADR-RES = test system: NCI/ADR-RES
A549 = test system: A549
CCRF-CEM = test system: CCRF-CEM
RXF 393 = test system: RXF 393
HOP-92 = test system: HOP-92

Row | SMILES | GI50 (NCI-H522) | GI50 (MCF7) | GI50 (NCI-H460) | GI50 (HCT-15) [µM] | GI50 (SK-MEL-2) | GI50 (Malme-3M) | GI50 (SK-OV-3) | GI50 (M14) | GI50 (DU-145) | GI50 (TK-10) | GI50 (NCI-H23) | GI50 (SW-620) | GI50 (786-0) | GI50 (NCI/ADR-RES) | GI50 (A549) | GI50 (CCRF-CEM) | GI50 (RXF 393) | GI50 (HOP-92)
1 | Cc1ncc([N+](=O)[O-])n1CCNC(=O)Cn1c([N+](=O)[O-])cnc1C | > 100 µM (inactive) | > 100 µM (inactive) | > 100 µM (inactive) | > 100 | > 100 µM (inactive) | > 100 µM (inactive) | > 100 µM (inactive) | > 100 µM (inactive) | 92.5 µM (inactive) | > 100 µM (inactive) | > 100 µM (inactive) | > 100 µM (inactive) | > 100 µM (inactive) | > 100 µM (inactive) | > 100 µM (inactive) | > 100 µM (inactive) | – | –
2 | CCOC(=O)C(C)c1nc2cc3cccnc3c(Cl)c2[nH]c1=O (centres undefined) | – | > 100 µM (inactive) | 32.4 µM (inactive) | > 100 | 86.9 µM (inactive) | – | > 100 µM (inactive) | > 100 µM (inactive) | 20 µM (inactive) | > 100 µM (inactive) | > 100 µM (inactive) | > 100 µM (inactive) | > 100 µM (inactive) | > 100 µM (inactive) | – | > 100 µM (inactive) | > 100 µM (inactive) | > 100 µM (inactive)
3 | CCN1CN(c2ccccc2)C2(CCN(CC3COc4ccccc4O3)CC2)C1=O (centres undefined) | 18 µM (inactive) | 26.1 µM (inactive) | 18.2 µM (inactive) | 20.5 | 13.2 µM (inactive) | 16.9 µM (inactive) | 28.6 µM (inactive) | 2.21 µM (inactive) | 36.6 µM (inactive) | 25.8 µM (inactive) | 40.6 µM (inactive) | 47.8 µM (inactive) | 47.9 µM (inactive) | 37.2 µM (inactive) | 36.6 µM (inactive) | 18.4 µM (inactive) | 15.5 µM (inactive) | –
4 | O=C1c2ccccc2CC12CCC1(CC2)OCCO1 | > 100 µM (inactive) | > 100 µM (inactive) | > 100 µM (inactive) | > 100 | > 100 µM (inactive) | 97.9 µM (inactive) | > 100 µM (inactive) | > 100 µM (inactive) | > 100 µM (inactive) | > 100 µM (inactive) | > 100 µM (inactive) | > 100 µM (inactive) | > 100 µM (inactive) | > 100 µM (inactive) | > 100 µM (inactive) | > 100 µM (inactive) | > 100 µM (inactive) | –
5 | O=C1Nc2ccccc2/C1=N/Nc1nc(-c2ccc([N+](=O)[O-])cc2)cs1 | – | 35.3 µM (inactive) | 11 µM (inactive) | 14.5 | 26.9 µM (inactive) | – | 63.1 µM (inactive) | 15 µM (inactive) | 26.5 µM (inactive) | 17.5 µM (inactive) | 27.7 µM (inactive) | 32.7 µM (inactive) | 19.4 µM (inactive) | 15.6 µM (inactive) | 30.1 µM (inactive) | – | – | 17.4 µM (inactive)
6 | Cc1ccc(S(=NS(=O)(=O)c2ccc(C)cc2)c2ccc(C)cc2)cc1 | – | 68.2 µM (inactive) | > 100 µM (inactive) | 57 | – | > 100 µM (inactive) | – | > 100 µM (inactive) | > 100 µM (inactive) | > 100 µM (inactive) | 51.6 µM (inactive) | > 100 µM (inactive) | > 100 µM (inactive) | 38.7 µM (inactive) | 62.5 µM (inactive) | 57 µM (inactive) | 81.8 µM (inactive) | > 100 µM (inactive)
7 | S=c1[nH]n2c(CCCCCCCCc3nnc4sc(=S)[nH]n34)nnc2s1 | > 100 µM (inactive) | > 100 µM (inactive) | > 100 µM (inactive) | > 100 | > 100 µM (inactive) | > 100 µM (inactive) | > 100 µM (inactive) | > 100 µM (inactive) | > 100 µM (inactive) | – | > 100 µM (inactive) | > 100 µM (inactive) | > 100 µM (inactive) | > 100 µM (inactive) | > 100 µM (inactive) | 83 µM (inactive) | – | > 100 µM (inactive)
8 | COC(=O)C1=C(CCCCO[Si](C)(C)C(C)(C)C)NC(=O)N2[C@@H](CCOCc3ccccc3)CC[C@H]12 | 11.1 µM (inactive) | 27 µM (inactive) | 25.9 µM (inactive) | 17.8 | 16.2 µM (inactive) | 19.4 µM (inactive) | 45.3 µM (inactive) | 25.8 µM (inactive) | 12.8 µM (inactive) | 40.3 µM (inactive) | 7.98 µM (inactive) | – | 15.9 µM (inactive) | 15.3 µM (inactive) | 14.8 µM (inactive) | 17.9 µM (inactive) | – | 15.5 µM (inactive)
9 | C=CCN(c1cc(OC)c(NC(C)=O)cc1[N+](=O)[O-])S(C)(=O)=O | 0.0349 µM (active) | > 100 µM (inactive) | > 100 µM (inactive) | > 100 | > 100 µM (inactive) | 10.1 µM (inactive) | > 100 µM (inactive) | > 100 µM (inactive) | > 100 µM (inactive) | > 100 µM (inactive) | > 100 µM (inactive) | > 100 µM (inactive) | > 100 µM (inactive) | > 100 µM (inactive) | > 100 µM (inactive) | > 100 µM (inactive) | > 100 µM (inactive) | –
10 | CC(=O)N1C(Nc2nccs2)CCN1c1ccccc1 (centres undefined) | – | > 10 µM (inactive) | > 10 µM (inactive) | > 10 | > 10 µM (inactive) | > 10 µM (inactive) | – | > 10 µM (inactive) | > 10 µM (inactive) | > 10 µM (inactive) | > 10 µM (inactive) | > 10 µM (inactive) | > 10 µM (inactive) | > 10 µM (inactive) | > 10 µM (inactive) | > 10 µM (inactive) | > 10 µM (inactive) | > 10 µM (inactive)
11 | CC(Nc1ncc2c(n1)-c1ccccc1OC2)C(=O)O (centres undefined) | – | 42.9 µM (inactive) | > 100 µM (inactive) | 85.9 | > 100 µM (inactive) | > 100 µM (inactive) | > 100 µM (inactive) | > 100 µM (inactive) | 30.3 µM (inactive) | > 100 µM (inactive) | 86.5 µM (inactive) | > 100 µM (inactive) | > 100 µM (inactive) | > 100 µM (inactive) | > 100 µM (inactive) | > 100 µM (inactive) | > 100 µM (inactive) | 35.9 µM (inactive)
12 | CCN(CC)CCOc1ccccc1/C=C/c1noc2ccccc12 | 8.17 µM (inactive) | 14.2 µM (inactive) | 11.6 µM (inactive) | 10.5 | 0.736 µM (active) | 1.01 µM (active) | 20 µM (inactive) | 2.54 µM (inactive) | 15.7 µM (inactive) | 15 µM (inactive) | 13.9 µM (inactive) | 10.2 µM (inactive) | 13.6 µM (inactive) | 19 µM (inactive) | – | 15.2 µM (inactive) | 2.75 µM (inactive) | –
13 | CC(C)[C@@H]1OC(=O)[C@@H](C)NC(=O)[C@@H]2CCCN2C1=O (cyclo([Hiv]-Pro-[dA])) | – | > 100 µM (inactive) | > 100 µM (inactive) | > 100 | > 100 µM (inactive) | > 100 µM (inactive) | > 100 µM (inactive) | > 100 µM (inactive) | > 100 µM (inactive) | > 100 µM (inactive) | > 100 µM (inactive) | > 100 µM (inactive) | > 100 µM (inactive) | > 100 µM (inactive) | > 100 µM (inactive) | > 100 µM (inactive) | > 100 µM (inactive) | > 100 µM (inactive)
